Test [1] concerns primary astrocytes. In words: Extracellular medium acidification (SNARF5) assay in astrocytes. Type of test: cell-based. The note with it: Mus musculus, Astrocyte; astrocytes in vitro; compounds 10 nM to 30 μM; read-out: Activity (EC50 class, extracellular medium acidification SNARF5). As to the method:
To assess for the effect of the compounds of the invention, those were tested in primary mouse astrocytes and astrocytes differentiated from human-derived induced pluripotent stem cells (iPSCs). Secretion of lactate was measured indirectly through the acidification of extracellular medium using extracellular pH sensor SNARE-5F-(AND-6)-CAR (SNARF5) as described below.
(§1) Primary cultures of cerebrocortical astrocytes were obtained from 1 to 2-day-old OF1 mouse pups (Charles River Laboratories). Briefly, cortices were isolated and minced in small pieces under a dissecting microscope. The cells were incubated for 30 min at 37° C. in a solution containing 20 U/ml papain, 1 mM L-cysteine and 10 kU/ml DNase I. After dissociation, papain activity was stopped by the addition of fetal calf serum (FCS). Single-cell suspension was then obtained by mechanical dissociation, which consisted in cells trituration in a DMEM D7777 medium supplemented with 44 mm NaHCO3, 10 ml/L antibiotic/antimycotic solution and 10% FCS. The cells were seeded at an average density of ˜10′000 cells/cm^2 on poly-D-lysine coated 96- or 12-well culture plates, depending on their use, and grown in DMEM D7777 medium supplemented with 44 mm NaHCO3, 10 ml/L antibiotic/antimycotic solution and 10% FCS at 37° C. in a humidified atmosphere containing 5% CO2/95% air. Culture medium was renewed twice a week. Cells were stimulated and harvested between DIV14 and DIV17, when confluence and cell growth were optimal.
Secretion of lactate was measured indirectly through the acidification of extracellular medium using extracellular pH sensor SNARF-5F-(AND-6)-CAR (SNARF5). After washing cells twice with stimulation medium (DMEM (D5030, Sigma), 1 mM […], and 5 mM Glucose, pH 7.4) at 37° C., cells were stimulated with compounds at a final concentration ranging from 10 nM to 30 μM in 50 μl per well of stimulation medium supplemented with 10 μM of SNARF5 (Life Technologies Corporation). Each compound was tested in two different plates for duplicates. After 30, 60 and 90 min stimulation, fluorescence was read at exc. (excitation) 480 nm/emm. (emission) 580 nm and at exc 480 nm/emm. 630 nm. The ratio of fluorescence between 630 nm and 580 emission values, which is proportional to extracellular pH, was calculated. In each plate, 8 wells were used for negative controls (DMSO 0.1%) and 8 wells were used for positive controls (CCCP 2 μM in DMSO). Results are shown as % of positive control effect (0% and 100% being activities of the Veh and positive control, respectively).

For test [2], the system named is primary astrocytes. In words: MTT mitochondrial activity assay in primary astrocytes. In kind it is cell-based, mouse. The note with it: different concentrations, after 1.5 h or 24 h. Here is the method:
as §1
To monitor mitochondrial activity in astrocytes, which is linked to the metabolic process of glycolysis and production of lactate, astrocytes in 96-well plates were stimulated for 24 h (37° C. 5% CO2/95% air) with the compounds of the invention ranging from 10 nM to 10 μM.
After stimulation, 5 mg/ml thiazol blue tetrazolium bromide (MTT) in D5030 medium complemented with 5 mM D-glucose and 44 mM sodium bicarbonate (pH 7.2) was added to each well, and cells were incubated for 4 h at 37° C. (5% CO2). The medium was then removed and the amount of reduced MTT, i.e formazan, solubilized in DMSO (50 μl/well) was determined using a spectrophotometer (absorbance of 570 nm).
The mitochondrial activity was monitored in MTT colorimetric assay in primary astrocytes treated with Compounds (1), (2), (3), (4) (5), (9) and (10) at different concentrations after 1.5 h (FIG. 2 A, B, D, E, F, C, H, respectively) or 24 h (FIG. 2 H, I, K, L, M, J, N, respectively).
Background: Tetrazolium assays rely on reduction of a dye to a coloured formazan, in cell work by metabolically active cells.

Molecules are shown by their SMILES.

For orientation: EC50 means the midpoint of the concentration-response curve. In the case of `C=COc1ccc2c(Nc3ccc(S(C)(=O)=O)cc3)nccc2c1` [Compound 10, N-(4-methylsulfonylphenyl)-6-vinyloxy-isoquinolin-1-amine], the EC50 in the test with primary astrocytes [1] is below 1 µM. Further, in the test with primary astrocytes [2], the “mitochondrial activity (MTT colorimetric assay)” value (“mitochondrial activity” below) is “none of the selected compounds had direct effect on mitochondrial activity”.
`CC(C)Oc1ccc2c(Nc3ccc(S(C)(=O)=O)cc3)nccc2c1` [Compound 11, 6-isopropoxy-N-(4-methylsulfonylphenyl)isoquinolin-1-amine]: in the test on primary astrocytes [1], the EC50 is below 1 µM.
With `CCCNc1cc2c(Nc3ccc(S(C)(=O)=O)cc3)nccc2cc1OC` [Compound 22, 6-methoxy-N1-(4-methylsulfonylphenyl)-N7-propyl-isoquinoline-1,7-diamine], the EC50 in the test with primary astrocytes [1] was below 1 µM.
As for `C=Cc1cc2c(Nc3ccc(S(C)(=O)=O)cc3)nccc2cc1OC` [Compound 16, 6-methoxy-N-(4-methylsulfonylphenyl)-7-vinyl-isoquinolin-1-amine], in the test with primary astrocytes [1], the 50% effective concentration (EC50) was below 1 µM.
As for `CCOc1cc2ccnc(Nc3ccc(S(C)(=O)=O)cc3)c2cc1O` [Compound 6, 6-ethoxy-1-(4-methylsulfonylanilino)isoquinolin-7-ol], in the test with primary astrocytes [1], the half-maximal effective concentration (EC50) is above 1 µM.
Consider `COc1cc2ccnc(Nc3ccc(N4CCCC4=O)cc3)c2cc1OC` [Compound 9, 1-[4-[(6,7-dimethoxy-1-isoquinolyl)amino]phenyl]pyrrolidin-2-one], for which the EC50 in the test with primary astrocytes [1] was below 1 µM. Moreover, the “mitochondrial activity” value in the test with primary astrocytes [2] is recorded as “none of the selected compounds had direct effect on mitochondrial activity”.
As for `CCOc1cc2ccnc(Nc3ccc(S(=O)(=O)C4CC4)cc3)c2cc1OCC` [Compound 32, N-[4-(cyclopropanesulfonyl)phenyl]-6,7-diethoxyisoquinolin-1-amine], in the test with primary astrocytes [1], the 50% effective concentration (EC50) was below 1 µM.
Take `CC(C)Oc1ccc2c(Cc3ccc(S(C)(=O)=O)cc3)nccc2c1` [Compound 35, 1-[(4-methanesulfonylphenyl)methyl]-6-(propan-2-yloxy)isoquinoline]: in the test with primary astrocytes [1], the EC50 is below 1 µM.
Still for that read-out and setting: for `CS(=O)(=O)c1ccc(Nc2nccc3cc(OCCF)c(OCCF)cc23)cc1` [Compound 34, 6,7-bis(2-fluoroethoxy)-N-(4-methanesulfonylphenyl)isoquinolin-1-amine] the value was below 1 µM; for `COc1cc2c(Nc3ccc(S(C)(=O)=O)cc3)nccc2cc1N1CCC1` [Compound 24, 6-(azetidin-1-yl)-7-methoxy-N-(4-methylsulfonylphenyl)isoquinolin-1-amine], below 1 µM.
Still for that read-out and setting: for `CCOc1cc2ccnc(Nc3ccc(-c4ccno4)cc3)c2cc1OCC` [Compound 29, 6,7-diethoxy-N-[4-(1,2-oxazol-5-yl)phenyl]isoquinolin-1-amine] the value was below 1 µM; for `CCOc1cc2ccnc(Nc3ccc(-c4ccon4)cc3)c2cc1OCC` [Compound 28, 6,7-diethoxy-N-[4-(1,2-oxazol-3-yl)phenyl]isoquinolin-1-amine], below 1 µM.
Consider `CS(=O)(=O)c1ccc(Nc2nccc3cc(O)c(O)cc23)cc1` [Compound 5, 1-(4-methylsulfonylanilino)isoquinoline-6,7-diol], for which the concentration for a half-maximal effect (EC50) in the test with primary astrocytes [1] is below 1 µM. In addition, in the test with primary astrocytes [2], the “mitochondrial activity” value is “none of the selected compounds had direct effect on mitochondrial activity”.
`COc1cc2c(Nc3ccc(S(C)(=O)=O)cc3)nccc2cc1NCC1CC1` [Compound 23, N6-(cyclopropylmethyl)-7-methoxy-N1-(4-methylsulfonylphenyl)isoquinoline-1,6-diamine]: in the test on primary astrocytes [1], the concentration giving a half-maximal response (EC50) was below 1 µM.
`CCOc1cc2c(Nc3ccc(S(C)(=O)=O)cc3)nccc2cc1O` [Compound 7, 7-ethoxy-1-(4-methylsulfonylanilino)isoquinolin-6-ol]: in the test on primary astrocytes [1], the EC50 was above 1 µM.
For `CC(=O)Nc1ccc2ccnc(Nc3ccc(S(C)(=O)=O)cc3)c2c1` [Compound 14, N-[1-(4-methylsulfonylanilino)-7-isoquinolyl]acetamide], the EC50 in the test with primary astrocytes [1] is below 1 µM.
On the same count and under the same terms, for `CS(=O)(=O)c1ccc(Nc2nccc3cc(O)c(Br)cc23)cc1` [Compound 19, 7-bromo-1-(4-methylsulfonylanilino)isoquinolin-6-ol] the value was below 1 µM; for `CCCc1cc2c(Nc3ccc(S(C)(=O)=O)cc3)nccc2cc1OCC` [Compound 37, 6-ethoxy-N-(4-methanesulfonylphenyl)-7-propylisoquinolin-1-amine], below 1 µM.
On the same count and under the same terms, for `CCOc1cc2ccnc(Nc3ccc(C4COC4)cc3)c2cc1OCC` [Compound 27, 6,7-diethoxy-N-[4-(oxetan-3-yl)phenyl]isoquinolin-1-amine] the value was below 1 µM; for `COc1cc2ccnc(Nc3ccc(S(C)(=O)=O)cc3)c2cc1NCc1ccccc1` [Compound 20, N7-benzyl-6-methoxy-N1-(4-methylsulfonylphenyl)isoquinoline-1,7-diamine], below 1 µM; for `CCc1cc2c(Nc3ccc(S(C)(=O)=O)cc3)nccc2cc1O` [Compound 18, 7-ethyl-1-(4-methylsulfonylanilino)isoquinolin-6-ol], below 1 µM.
Take `CCc1cc2c(Nc3ccc(S(C)(=O)=O)cc3)nccc2cc1OC` [Compound 17, 7-ethyl-6-methoxy-N-(4-methylsulfonylphenyl)isoquinolin-1-amine]: the 50% effective concentration (EC50) in the test with primary astrocytes [1] is below 1 µM.
Same read-out and setting: for `CCOc1cc2ccnc(Nc3ccc(S(C)(=O)=O)cc3F)c2cc1OCC` [Compound 31, 6,7-diethoxy-N-(2-fluoro-4-methanesulfonylphenyl)isoquinolin-1-amine] the value was below 1 µM; for `CS(=O)(=O)c1ccc(Nc2nccc3cc(OCc4ccc(F)cc4)ccc23)cc1` [Compound 36, 6-[(4-fluorophenyl)methoxy]-N-(4-methanesulfonylphenyl)isoquinolin-1-amine], below 1 µM.
With `CS(=O)(=O)c1ccc(Nc2nccc3cc(-c4ncccn4)ccc23)cc1` [Compound 12, N-(4-methylsulfonylphenyl)-6-pyrimidin-2-yl-isoquinolin-1-amine], the EC50 in the test on primary astrocytes [1] was below 1 µM.
For the molecule `COc1cc2ccnc(Nc3ccc(S(C)(=O)=O)cc3)c2cc1NCC1CC1` [Compound 21, N7-(cyclopropylmethyl)-6-methoxy-N1-(4-methylsulfonylphenyl)isoquinoline-1,7-diamine], the half-maximal effective concentration (EC50) in the test on primary astrocytes [1] was below 1 µM.
Same read-out and setting: for `CCc1cc2ccnc(Nc3ccc(S(C)(=O)=O)cc3)c2cc1O` [Compound 25, 6-ethyl-1-[(4-methanesulfonylphenyl)amino]isoquinolin-7-ol] the value was below 1 µM; for `CS(=O)(=O)c1ccc(Nc2nccc3ccc(O)cc23)cc1` [Compound 13, 1-(4-methylsulfonylanilino)isoquinolin-7-ol], above 1 µM.
Still for that read-out and setting: for `CCOc1cc2ccnc(Nc3ccc(S(C)(=O)=O)cc3)c2cc1OCCF` [Compound 33, 6-ethoxy-7-(2-fluoroethoxy)-N-(4-methanesulfonylphenyl)isoquinolin-1-amine] the value was below 1 µM; for `CCOc1cc2ccnc(Nc3ccc(S(C)(=O)=O)c(F)c3)c2cc1OCC` [Compound 30, 6,7-diethoxy-N-(3-fluoro-4-methanesulfonylphenyl)isoquinolin-1-amine], below 1 µM; for `CCOc1cc2ccnc(Nc3ccc(S(C)(=O)=O)cc3)c2cc1OCC` [Compound 8, 6,7-diethoxy-N-(4-methylsulfonylphenyl)isoquinolin-1-amine], below 1 µM.
On the same count and under the same terms, for `CCOc1cc2ccnc(Nc3ccc(S(=O)(=O)CC)cc3)c2cc1OCC` [Compound 26, N-[4-(ethanesulfonyl)phenyl]-6,7-diethoxyisoquinolin-1-amine] the value was below 1 µM; for `CCNc1ccc2ccnc(Nc3ccc(S(C)(=O)=O)cc3)c2c1` [Compound 15, N7-ethyl-N1-(4-methylsulfonylphenyl)isoquinoline-1,7-diamine], above 1 µM.

Values taken from US20260125357A1, “LACTATE ENHANCING COMPOUNDS AND USES THEREOF” (GLIAPHARM SA, priority 2022, published 2026).
